The record followed here is patent US20070066682A1, “Arylalkylamine vanadium (V) salts for the treatment and/or prevention of Diabetes mellitus” (priority 2005, published 2007).

Entries after “also recorded” stand apart in the source; their conditions may differ.

For data set [1], the system named is streptozotocin-induced diabetic rats. Put plainly: Chronic oral treatment of streptozotocin (45 mg/kg) diabetic rats, glycemia. Type of data set: in vivo, rat. The procedure: (§1) Male Wistar rats weighting 180-220 g were purchased from Harlan (Interfauna Ibèrica S.A., Spain). Diabetes was induced by a single intraperitoneal injection of a freshly prepared solution of streptozotocin (in some studies the dose was 45 mg/kg body weight and in some others 100 mg/kg body weight dissolved in 50 mM citrate buffer, pH 4.5). Only diabetic animals with glycemia above 300 mg/dl were used. The animals were housed in animal quarters at 22° C., with a 12 h light/12 h dark cycle and were fed ad libitum. All procedures used were approved by the animal ethical committee of the University of Barcelona, Spain. Male mice C57 BL/Ks bearing the db/db mutation (Jackson Laboratories, Bar Harbor, Me.) were purchased from Harlan France (Gannat, France). C57BL/6J male mice were assigned for 16 weeks to very high-fat diet containing (in kcal): 72% from fat, 28% from proteins and <1% from carbohydrates (Burcelin et al., 2002, Am. J. Physiol. Endocrinol. Metab 282: E834-E842).
(§2) Osmotic minipumps delivering B6V10 (2.5 μmol/kg body wt/day) or decavanadate (2.5 μmol/kg body wt/day) were implanted subcutaneously in diabetic rats anaesthetised by ketamine hydrochloride (95 mg/kg) and xylasine (10 mg/kg). […] Glycemia was measured on arterio-venous blood collected from the tail vessels at 09:00 am for two weeks, before the administration of vanadate. Insulin concentrations were determined before and after treatment. In another set of experiments, B6V10 was orally administered at a single dose of 5 μmol/kg/day during the first week and 10 μmol/kg/day during 2 additional weeks by gastric gavage. A control group received the corresponding decavanadate salt in the absence of benzylamine. At the end of the treatment, animals were sacrificed and the liver, fat pad, heart and lung were kept at −80° C. and the plasma at −20° C. until their use for in vitro analysis.
(§3) In glucose tolerance tests and in chronic treatments, circulating glucose concentrations were determined by a rapid glucose analyser (Accutrend® Sensor Comfort, Roche, Basel. Switzerland). Plasma insulin (IRI) concentration was determined by ELISA method using a kit obtained from Crystal Chem Inc. (Downers Grove, Ill.). Plasma triglycerides (Biosystems, Barcelona, Spain) and NEFAS (Wako Chemicals, Neuss, Germany) were determined with standard […] methods.
The effect of the oral administration of hexaquis(benzylammonium) decavanadate on glycemia from diabetic rats was also studied. Diabetes was induced in rats by intravenous administration of streptozotocin, and subsequently, a hexaquis(benzylammonium) decavanadate or sodium decavanadate unique dose was administered to the rats. […] After seven days of treatment, the dose was increased at 10 μmol/kg/day which was maintained for an additional ten days. […] Thus, glycemia in sodium decavanadate treated rats was approximately 450 mg/dl and glycemia of hexaquis(benzylammonium) decavanadate treated rats was approximately 250 mg/dl.
(§4) Chronic in vivo efficacy of B6V10 was evaluated in streptozotocin-induced diabetic rats and in db/db mice. Streptozotocin-induced (45 mg/kg) diabetic rats were subcutaneously treated with hexaquis(benzylammonium) decavanadate (2.5 μmol/kg) (B6V10, solid squares, FIG. 8A) or with decavanadate (2.5 μmol/kg) (V10, open circles, FIG. 8A) delivered subcutaneously by osmotic minipumps implanted in the dorsal region. Diabetic rats were also sham-operated (untreated, solid diamonds, FIG. 8A). […] These experiments were repeated using an oral administration protocol. Streptozotocin-induced (45 mg/kg) diabetic rats were orally treated with hexaquis(benzylammonium) decavanadate (5 μmol/kg from day 0 to day 7 and 10 μmol/kg/day from day 7 to day 17) (B6V10, solid squares, FIG. 8B) or received decavanadate (10 μmol/kg) (V10, open circles, FIG. 8B). Nondiabetic rats were also untreated (solid triangles, FIG. 8B).

Data set [2] shares this test system. Put plainly: Chronic subcutaneous (osmotic minipump) treatment of streptozotocin (45 mg/kg) diabetic rats, glycemia. It is filed as in vivo, rat. The conditions noted are these: for glycemia during chronic subcutaneous treatment: 2.5 μmol/kg/day by osmotic minipumps, about two weeks, STZ 45 mg/kg rats, dihydrate. How it is done: as §1, §2, §3
The effect of chronic administration of hexaquis(benzylammonium) decavanadate on glycemia from diabetic rats was determined. Thus, diabetes was induced in rats by intravenous administration of streptozotocin, which destroys the β-pancreatic cells that produce insulin.
as §4, with “Nondiabetic rats were also untreated (solid triangles, FIG. 8B).” left out

Data set [3] deals with isolated mouse adipocytes. Put plainly: Glucose transport (2-DG) in isolated mouse adipocytes. The following applies: 100 μM. Type of data set: cell-based. How it is done: Adipose cells from FVB mice were incubated for 45 minutes in basal conditions (Basal) or in the presence of 100 nM insulin (Ins), and different concentrations of hexaquis(benzylammonium) decavanadate (B6V10) in the absence or in the presence of 1 mM semicarbazide (SCZ) and thereafter, 2-DG transport was measured over 5 min.

Data set [4] is described as follows: Tolerability in treated animals. It is filed as in vivo.
The next data set has as its system db/db mice. Put plainly: Chronic treatment of obese diabetic db/db mice, glycemia. It is filed as in vivo, mouse. How it is done: as §1
Data set [5] concerns streptozotocin-induced diabetic rat with undetectable circulating insulin. Put plainly: Subcutaneous treatment of streptozotocin (100 mg/kg) diabetic rats with undetectable circulating insulin. It is filed as in vivo. The procedure:
as §1, §3
To this end, rats were made diabetic by the injection of a large dose of streptozotocin (100 mg/kg) that eliminates β-pancreatic insulin content. […] These streptozotocin-induced diabetic rats were subcutaneously treated with B6V10 (2.5 μmol/kg) (solid squares, FIG. 9A) delivered by osmotic minipumps or left untreated (solid circles, FIG. 9A). Sham-operated nondiabetic rats were also untreated (solid triangles, FIG. 9A).
The concentration of circulating glucose under these conditions was also assayed. After 28 days of treating diabetic rats with hexaquis(benzylammonium) decavanadate (2.5 μmol/kg) (wide striped bars, FIG. 9B), or with decavanadate (close striped bars, FIG. 9B) delivered by osmotic minipumps, plasma insulin and glucose were measured. Untreated diabetic (solid bars, FIG. 9B) or nondiabetic rats (open bars, FIG. 9B) were similarly assayed as controls.

With “hexaquis(benzylammonium) decavanadate (V) dihydrate [Entry B6V10]”, in data set [1] (5 μmol/kg/day for seven days), the “glycemia, oral 5 μmol/kg/day” value was “moderate decrease of hyperglycemia that was detected after but two days of treatment”. For the same substance, the “glycemia, oral dose increased to 10 μmol/kg/day” value in data set [1] (10 μmol/kg/day for an additional ten days) was “additional decrease in glycemia”. In addition, in data set [1] (daily oral, 17 days (5 then 10 μmol/kg/day), STZ 45 mg/kg rats, dihydrate), the “glycemia during chronic oral treatment” value was “ameliorated hyperglycemia; also recorded: significant correction of hyperglycemia”. Besides, the glycemia result in data set [1] (oral treatment, after dose increase to 10 μmol/kg/day) is given as “approximately 250 mg/dl”; in the data set on db/db mice, “ameliorated glycemia”. The “glycemia during chronic subcutaneous treatment” value is “ameliorated hyperglycemia; also recorded: significant correction of hyperglycemia; also recorded: significant differences in the B6V10 group compared to the untreated group from day 8 of treatment” in data set [2] and “rapid reduction of the hyperglycemia that was detected after only four days of treatment” in data set [2] (listed as hexaquis(benzylammonium) decavanadate). Besides, the “glucose transport of adipocytes isolated from treated rats” value in data set [2] (fourteen days of treatment, basal conditions) is “increased glucose transport under basal conditions equivalent to that seen in the presence of insulin”. Besides, in data set [3], the “stimulation of glucose transport (% increase)” value is 93%. In addition, in data set [4] (at the doses used), the toxicological side effects result is listed as “did not show toxicological side effects”. In addition, the hypoglycemia result in data set [4] (treated animals) is recorded as “did not cause hypoglycemia”. Besides, the “glycemia in diabetic rats with undetectable insulin” value in data set [5] (2.5 μmol/kg subcutaneous minipumps, STZ 100 mg/kg, dihydrate) is “markedly effective in lowering hyperglycemia; also recorded: reducing glycemia; also recorded: significant differences between the B6V10 and the untreated groups; also recorded: antidiabetic effects”. Further, the “plasma glucose and insulin after 28 days of treatment” value in data set [5] (2.5 μmol/kg, osmotic minipumps, STZ 100 mg/kg) is on record as “plasma glucose was reduced even without any observable change in the amount of insulin”. Besides, the “body weight or organ weights” value in data set [5] (chronic treatment with therapeutic doses) is “did not affect body weight or organ weights”.
